Assays:
HT-29 cell line = test: 3D spheroid tumor formation and growth; type: cell-based, human; details: for effect on growing tumors, treatment after spheroid formation: HT-29 spheroids, single dose 72 h after seeding, for additional 72 hours; for effect on tumor formation, treatment before tumor formation: 150 µM
Procedure: The spheroid formation potential of HT29 human colon cancer cell line was evaluated in 3D nonadherent culture condition. Initially the HT29 human cells were grown as a monolayer after which they were counted, re-suspended and plated with 1,500 cells per well in a 96-well plate pre-coated with a thin layer of 1.5% agarose (w/v) in McCoy's 5A medium containing 10% FBS and incubated at 37° C. in a humidified atmosphere of 5% CO2. Cell culture media was replaced every 2-3 days with fresh medium to remove cellular debris and the spheroids that were not well-formed. After the beginning of the multicellular tumor spheroid formation, the tested compounds were added at various concentrations (0.2, 0.4 and 0.6 mg/ml) and incubated for 24, 48 and 72 h. The number and diameter of colonies within each well were photographed and counted every day under the microscope (Olympus BX-51; Olympus, Hamburg, Germany), and the images of the representative fields were captured. Each sample was analyzed in triplicate, and all the experiments were performed three times. The viability of cells growing on the spheroids was measured by the APH (acid phosphatase) assay, which was performed according to manufacturer's instructions.
The cellular assays described above were performed in a monolayer system. Although monolayer systems partially reflect the microenvironment of cancer cells, there are currently more advanced culture methods that mimic in a better way the cellular interactions by the cells comprising the tumor (Freidrich, J. et. al.; Nat. Prot. 2009, 4, 309-324). […] This assay can be applied to test whether the compounds treatment is able of impairing tumors formation or alternately to test the effect of the treatment in growing tumors. HT-29 cell line was used for this model due to its capacity to form spheroids in vitro.

leukemia = details: Dimas et al. 2000; cited from earlier work
[1] = system: methicillin-resistant Staphylococcus aureus; details: Ibrahim et al. 2009; cited from earlier work

With `CCc1c2c(nc3ccc(OC(=O)N4CCC(N5CCCCC5)CC4)cc13)-c1cc3c(c(=O)n1C2)COC(=O)[C@]3(O)CC` [irinotecan] the “effect on growing tumors, treatment after spheroid formation” value (HT-29 cell line) was “didn't generate any effect”.
With `N.N.O=C([O-])C1(C(=O)[O-])CCC1.[Pt+2]` [carboplatin] the “effect on growing tumors, treatment after spheroid formation” value (HT-29 cell line) was “didn't generate any effect”.
For `O=C(O)/C=C/c1ccc(O)cc1` [p-coumaric acid], the “effect on tumor formation, treatment before tumor formation” value (HT-29 cell line) was “no effect”.
In the case of `O=C1C[C@@H](c2ccc(O)cc2)Oc2cc(O)cc(O)c21` [naringenin], the “effect on tumor formation, treatment before tumor formation” value (HT-29 cell line) is reported as “no effect”.
In the case of `C[C@@H]1O[C@@H](Oc2c(-c3ccc(O)cc3)oc3cc(O)cc(O)c3c2=O)[C@H](OC(=O)/C=C/c2ccc(O)cc2)[C@H](OC(=O)/C=C/c2ccc(O)cc2)[C@H]1O` [Platanoside, platanoside], the anti-leukemic activity (leukemia) is listed as “active as an anti-leukemic agent” and the “anti-methicillin-resistant Staphylococcus aureus activity” value [1] is listed as “anti-methicillin-resistant Staphylococcus aureus”.

Source: patent US11344567B2, “Methods of treating cancer using platanoside and isomers thereof” (SHARE GAL RESEARCH AND DEVELOPMENT LTD, priority 2018, dated 2022)
